{"source": "patent US5837868A", "about": "“Process for preparation of chiral 3-amino-pyrrolidine and analogous bicyclic compounds” (Abbott Laboratories, priority 1997, dated 1998)", "key": {"[1]": {"tested_on": "Staph. aureus CMX 553", "assay": "In vitro antibacterial activity, agar dilution MIC", "assay_type": "cell-based", "details": "Staphylococcus aureus, CMX553; Staph. aureus CMX 553; BHI agar dilution, 20-24 hours; read-out: MIC", "protocol": "(§1) Each plate was inoculated with 1:100 (or 1:10 for slow-growing strains, primarily Micrococcus and Streptococcus) dilutions of up to 32 different microorganisms, using a Steers replicator block calibrated to deliver approximately 10^4 colony forming units (CFUs). The inoculated plates were incubated at from about 35° C. to about 37° C. for approximately 20-24 hours. In addition, a control plate using BHI agar containing no test compound was prepared and incubated at the beginning and at the end of each test. The quinolone antibacterial ciprofloxacin was used as a control (\"Cntl\").\n(§2) The MIC was defined as the lowest concentration of test compound yielding no growth (a slight haze or sparsely isolated colonies at the inoculum spot) as compared to the growth control containing no test compound."}, "[2]": {"tested_on": "P. aeruginosa 5263", "assay": "microbe, parasite or virus in culture", "details": "Pseudomonas aeruginosa", "protocol": "as §1, §2"}, "[3]": {"tested_on": "Strep. pyogenes 930 CONST", "assay": "In vitro antibacterial activity, agar dilution MIC", "assay_type": "cell-based", "details": "Streptococcus pyogenes; Strep. pyogenes 930 CONST; BHI agar dilution, 20-24 hours; read-out: MIC", "protocol": "as §1, §2"}, "[4]": {"tested_on": "P. aeruginosa A5007", "assay": "In vitro antibacterial activity, agar dilution MIC", "assay_type": "cell-based", "details": "Pseudomonas aeruginosa, A5007", "protocol": "as §1, §2"}, "[5]": {"tested_on": "Klebs. pneumoniae ATCC 8045", "assay": "In vitro antibacterial activity, agar dilution MIC", "assay_type": "cell-based", "details": "Klebsiella pneumoniae, ATCC8045; Klebs. pneumoniae ATCC 8045; BHI agar dilution, 20-24 hours; read-out: MIC", "protocol": "as §1, §2"}, "[6]": {"tested_on": "M. luteus ATCC 4698", "assay": "In vitro antibacterial activity, agar dilution MIC", "assay_type": "cell-based", "details": "Micrococcus luteus, ATCC4698", "protocol": "as §1, §2"}, "[7]": {"tested_on": "Nocardia asteroides ATCC 9970", "assay": "In vitro antibacterial activity, agar dilution MIC", "assay_type": "cell-based", "details": "ATCC9970; Nocardia asteroides ATCC 9970; BHI agar dilution, 20-24 hours; read-out: MIC", "protocol": "as §1, §2"}, "[8]": {"tested_on": "P. aeruginosa K799/61", "assay": "In vitro antibacterial activity, agar dilution MIC", "assay_type": "cell-based", "details": "Pseudomonas aeruginosa, K799/61", "protocol": "as §1, §2"}, "[9]": {"tested_on": "Entero. faecium ATCC 8043", "assay": "In vitro antibacterial activity, agar dilution MIC", "assay_type": "cell-based", "details": "Enterococcus faecium, ATCC8043; Entero. faecium ATCC 8043; BHI agar dilution, 20-24 hours; read-out: MIC", "protocol": "as §1, §2"}, "[10]": {"tested_on": "Staph. aureus ATCC 6538P", "assay": "In vitro antibacterial activity, agar dilution MIC", "assay_type": "cell-based", "details": "Staphylococcus aureus, ATCC6538P", "protocol": "as §1, §2"}, "[11]": {"tested_on": "Providencia stuartii CMX 640", "assay": "In vitro antibacterial activity, agar dilution MIC", "assay_type": "cell-based", "details": "CMX640; Providencia stuartii CMX 640; BHI agar dilution, 20-24 hours; read-out: MIC", "protocol": "as §1, §2"}, "[12]": {"tested_on": "E. coli DC-2", "assay": "In vitro antibacterial activity, agar dilution MIC", "assay_type": "cell-based", "details": "Escherichia coli, DC2", "protocol": "as §1, §2"}, "[13]": {"tested_on": "Staph. aureus 5278", "assay": "In vitro antibacterial activity, agar dilution MIC", "assay_type": "cell-based", "details": "Staphylococcus aureus, 5278", "protocol": "as §1, §2"}, "[14]": {"tested_on": "Staph. epidermidis 3519", "assay": "In vitro antibacterial activity, agar dilution MIC", "assay_type": "cell-based", "details": "Staphylococcus epidermidis, 3519", "protocol": "as §1, §2"}, "[15]": {"tested_on": "M. luteus ATCC 9341", "assay": "In vitro antibacterial activity, agar dilution MIC", "assay_type": "cell-based", "details": "Micrococcus luteus, ATCC9341", "protocol": "as §1, §2"}, "[16]": {"tested_on": "Staph. aureus A5177", "assay": "In vitro antibacterial activity, agar dilution MIC", "assay_type": "cell-based", "details": "Staphylococcus aureus, A5177", "protocol": "as §1, §2"}, "[17]": {"tested_on": "Acinetob. calcoaceticus CMX 669", "assay": "In vitro antibacterial activity, agar dilution MIC", "assay_type": "cell-based", "protocol": "as §1, §2"}, "[18]": {"tested_on": "E. coli KNK 437", "assay": "In vitro antibacterial activity, agar dilution MIC", "assay_type": "cell-based", "details": "Escherichia coli, KNK437", "protocol": "as §1, §2"}, "[19]": {"tested_on": "P. aeruginosa 2862", "assay": "In vitro antibacterial activity, agar dilution MIC", "assay_type": "cell-based", "details": "Pseudomonas aeruginosa, 2862", "protocol": "as §1, §2"}, "[20]": {"tested_on": "Staph. aureus 1775 Cipro. R.", "assay": "In vitro antibacterial activity, agar dilution MIC", "assay_type": "cell-based", "details": "Staphylococcus aureus", "protocol": "as §1, §2"}, "[21]": {"tested_on": "Pseudomonas cepacia 296I", "assay": "In vitro antibacterial activity, agar dilution MIC", "assay_type": "cell-based", "details": "Burkholderia cepacia, 296I", "protocol": "as §1, §2"}, "[22]": {"tested_on": "Strep. pyogenes EES61", "assay": "In vitro antibacterial activity, agar dilution MIC", "assay_type": "cell-based", "details": "Streptococcus pyogenes, EES61", "protocol": "as §1, §2"}, "[23]": {"tested_on": "P. aeruginosa BMH 10", "assay": "In vitro antibacterial activity, agar dilution MIC", "assay_type": "cell-based", "details": "Pseudomonas aeruginosa, BMH10", "protocol": "as §1, §2"}, "[24]": {"tested_on": "Candida albicans CCH 442", "assay": "In vitro antibacterial activity, agar dilution MIC", "details": "Candida albicans, CCH442", "protocol": "as §1, §2"}, "[25]": {"tested_on": "P. aeruginosa K799/WT", "assay": "In vitro antibacterial activity, agar dilution MIC", "assay_type": "cell-based", "details": "Pseudomonas aeruginosa, K799/WT", "protocol": "as §1, §2"}, "[26]": {"tested_on": "Staph. aureus 642A", "assay": "In vitro antibacterial activity, agar dilution MIC", "assay_type": "cell-based", "details": "Staphylococcus aureus, 642A", "protocol": "as §1, §2"}, "[27]": {"tested_on": "Strep. pyogenes 2548 INDUC", "assay": "microbe, parasite or virus in culture", "assay_type": "cell-based", "details": "Streptococcus pyogenes, 2548INDUC", "protocol": "as §1, §2"}, "[28]": {"tested_on": "Staph. aureus NCTC10649M", "assay": "In vitro antibacterial activity, agar dilution MIC", "assay_type": "cell-based", "details": "Staphylococcus aureus, NCTC10649M", "protocol": "as §1, §2"}, "[29]": {"tested_on": "E. coli H560", "assay": "In vitro antibacterial activity, agar dilution MIC", "assay_type": "cell-based", "details": "Escherichia coli, H560", "protocol": "as §1, §2"}, "[30]": {"tested_on": "Myco. smegmatis ATCC 114", "assay": "In vitro antibacterial activity, agar dilution MIC", "assay_type": "cell-based", "details": "Mycolicibacterium smegmatis, ATCC114", "protocol": "as §1, §2"}, "[31]": {"tested_on": "Strep. bovis A5169", "assay": "In vitro antibacterial activity, agar dilution MIC", "assay_type": "cell-based", "details": "Streptococcus equinus, A5169", "protocol": "as §1, §2"}, "[32]": {"tested_on": "Escherichia coli Juhl", "assay": "In vitro antibacterial activity, agar dilution MIC", "assay_type": "cell-based", "details": "Escherichia coli", "protocol": "as §1, §2"}, "[33]": {"tested_on": "Strep. agalactiae CMX 508", "assay": "In vitro antibacterial activity, agar dilution MIC", "assay_type": "cell-based", "details": "Streptococcus agalactiae, CMX508; Strep. agalactiae CMX 508; BHI agar dilution, 20-24 hours; read-out: MIC", "protocol": "as §1, §2"}, "[34]": {"tested_on": "E. coli SS", "assay": "In vitro antibacterial activity, agar dilution MIC", "assay_type": "cell-based", "details": "Escherichia coli", "protocol": "as §1, §2"}, "[35]": {"tested_on": "Enter. aerogenes ATCC 13048", "assay": "In vitro antibacterial activity, agar dilution MIC", "assay_type": "cell-based", "details": "Klebsiella aerogenes, ATCC13048", "protocol": "as §1, §2"}}, "data": [{"smiles": "O=C(O)c1cn(C2CC2)c2cc(N3CCNCC3)c(F)cc2c1=O", "note": "[Control, ciprofloxacin, reference compound]", "values": [{"measurement": "MIC", "setting": "[1]", "result": 0.78, "unit": "µg/mL"}, {"measurement": "MIC", "setting": "[2]", "result": 12.5, "unit": "µg/mL"}, {"measurement": "MIC", "setting": "[3]", "result": 0.78, "unit": "µg/mL"}, {"measurement": "MIC", "setting": "[4]", "result": 0.2, "unit": "µg/mL"}, {"measurement": "MIC", "setting": "[5]", "result": 0.01, "unit": "µg/mL"}, {"measurement": "MIC", "setting": "[6]", "result": 1.56, "unit": "µg/mL"}, {"measurement": "MIC", "setting": "[7]", "result": 25, "unit": "µg/mL"}, {"measurement": "MIC", "setting": "[8]", "result": 0.02, "unit": "µg/mL"}, {"measurement": "MIC", "setting": "[9]", "result": 0.78, "unit": "µg/mL"}, {"measurement": "MIC", "setting": "[10]", "result": 0.05, "unit": "µg/mL"}, {"measurement": "MIC", "setting": "[11]", "result": 0.78, "unit": "µg/mL"}, {"measurement": "MIC", "setting": "[12]", "result": 0.2, "unit": "µg/mL"}, {"measurement": "MIC", "setting": "[13]", "result": 0.39, "unit": "µg/mL"}, {"measurement": "MIC", "setting": "[14]", "result": 0.39, "unit": "µg/mL"}, {"measurement": "MIC", "setting": "[15]", "result": 3.1, "unit": "µg/mL"}, {"measurement": "MIC", "setting": "[16]", "result": 0.39, "unit": "µg/mL"}, {"measurement": "MIC", "setting": "[17]", "result": 0.39, "unit": "µg/mL"}, {"measurement": "MIC", "setting": "[18]", "result": 0.2, "unit": "µg/mL"}, {"measurement": "MIC", "setting": "[19]", "result": 12.5, "unit": "µg/mL"}, {"measurement": "MIC", "setting": "[20]", "result": "> 100", "unit": "µg/mL"}, {"measurement": "MIC", "setting": "[21]", "result": 3.1, "unit": "µg/mL"}, {"measurement": "MIC", "setting": "[22]", "result": 0.39, "unit": "µg/mL"}, {"measurement": "MIC", "setting": "[23]", "result": 0.1, "unit": "µg/mL"}, {"measurement": "MIC", "setting": "[24]", "result": "> 100", "unit": "µg/mL"}, {"measurement": "MIC", "setting": "[25]", "result": 0.1, "unit": "µg/mL"}, {"measurement": "MIC", "setting": "[26]", "result": 0.39, "unit": "µg/mL"}, {"measurement": "MIC", "setting": "[27]", "result": 0.39, "unit": "µg/mL"}, {"measurement": "MIC", "setting": "[28]", "result": 0.39, "unit": "µg/mL"}, {"measurement": "MIC", "setting": "[29]", "result": 0.01, "unit": "µg/mL"}, {"measurement": "MIC", "setting": "[30]", "result": 1.56, "unit": "µg/mL"}, {"measurement": "MIC", "setting": "[31]", "result": 1.56, "unit": "µg/mL"}, {"measurement": "MIC", "setting": "[32]", "result": 0.05, "unit": "µg/mL"}, {"measurement": "MIC", "setting": "[33]", "result": 0.78, "unit": "µg/mL"}, {"measurement": "MIC", "setting": "[34]", "result": 0.005, "unit": "µg/mL"}, {"measurement": "MIC", "setting": "[35]", "result": 0.05, "unit": "µg/mL"}]}]}
